Patent publication US10913765B2, “Liver specific delivery-based gemcitabine prodrug nucleoside cyclic phosphate compound, and application thereof” (ZHEJIANG PALO ALTO PHARMACEUTICALS, INC., priority 2017, dated 2021)
Blank lines part the entries; values can stand above or below the molecule they belong to.

Key:
[1] = human, 5 min, 25 μM, pH 7.4
Experimental: Human liver microsomes (HLM) were purchased from IVT (In Vitro Technologies), lot number SSP, article number X008070.
Enzymatic reaction was carried out in 100 mM KH2PO4 buffer solution (pH 7.4), the concentration of the test compounds was 25 M, the concentration of human liver microsomes was 2 mg/ml, and NADPH concentration was 2 mM. The reaction was initiated by NADPH finally added, and after reaction for 5 min in a constant-temperature shaking water bath kettle, 1.5 times of volume of methanol containing internal standard (PMPA) was immediately added to terminate the reaction.
(§1) Centrifugation was carried out for 20 minutes at a maximum speed of 13,600 rpm using an Eppendorf tabletop centrifuge. Supernatant was taken, and after being blow-dried by a nitrogen blower, the supernatant was re-dissolved into a mobile phase A (0.1% formic acid v/v aqueous solution).
(§2) Analytical column: Waters, Acquity UPLC HSS T3 column
Column temperature: 40° C.
(§3) Ion source: electrospray ionization source
Ion mode: positive ion mode
Capillary voltage: 3.0 kV
Desolventizing airflow speed: 100 L/h

[2] = human, 5 min, 25 μM, pH 7.4; remark: listed apart in the source
Experimental: Human liver microsomes (HLM) were purchased from IVT (In Vitro Technologies), article number X008070, lot number IQF.
Enzymatic reaction was carried out in 100 mM KH2PO4 buffer solution (pH 7.4), the concentration of the test compounds was 25 μM, the concentration of human liver microsomes was 2 mg/ml, and NADPH concentration was 2 mM. The reaction was initiated by NADPH finally added, and after reaction for 5 min in a constant-temperature shaking water bath kettle, 1.5 times of volume of methanol containing internal standard (PMPA) was immediately added to terminate the reaction.
as §1, §2
Column temperature: 40° C.
as §3
Ion mode: positive ion mode
Capillary voltage: 3.0 kV
Desolventizing airflow speed: 100 L/h

Structure (SMILES): Nc1ccn([C@@H]2O[C@H](COP3(=O)OCC[C@H](c4cc(F)cc(Cl)c4)O3)[C@@H](O)C2(F)F)c(=O)n1 (stereo partly drawn) [PA4002]
Conversion rate to dFdCMP relative to that of PA4001 [1]: 1.0 times | Conversion rate to dFdCMP relative to that of PA4003 [1]: about 7.3 times

Structure (SMILES): Nc1ccn([C@@H]2O[C@H](COP3(=O)OCC[C@H](c4cc(Cl)ccc4F)O3)[C@@H](O)C2(F)F)c(=O)n1 (stereo partly drawn) [PA4004]
Conversion rate to dFdCMP relative to that of PA4001 [1]: 1.3 times | Conversion rate to dFdCMP relative to that of PA4003 [1]: ~9.5 times | Activation Rate (rate of releasing monophosphate product dFdCMP) [2]: 10.98 ± 1.23 pmol/min/mg HLM

Structure (SMILES): Nc1ccn([C@@H]2O[C@H](COP3(=O)OCC[C@H](c4cc(Cl)cc(Cl)c4)O3)[C@@H](O)C2(F)F)c(=O)n1 (stereo partly drawn) [PA4006]
Activation Rate (rate of releasing monophosphate product dFdCMP) [2]: 6.92 ± 0.01 pmol/min/mg HLM

Structure (SMILES): Nc1ccn([C@@H]2O[C@H](COP3(=O)OCC[C@H](c4ccc(F)c(Cl)c4)O3)[C@@H](O)C2(F)F)c(=O)n1 (stereo partly drawn) [PA4008]
Activation Rate (rate of releasing monophosphate product dFdCMP) [2]: 5.45 ± 0.12 pmol/min/mg HLM

Structure (SMILES): Nc1ccn([C@@H]2O[C@H](COP3(=O)OCC[C@H](c4ccc(Cl)c(F)c4)O3)[C@@H](O)C2(F)F)c(=O)n1 (stereo partly drawn) [PA4009]
Activation Rate (rate of releasing monophosphate product dFdCMP) [2]: 10.45 ± 0.85 pmol/min/mg HLM

Structure (SMILES): Nc1ccn([C@@H]2O[C@H](COP3(=O)OCC[C@H](c4cccc(Cl)c4F)O3)[C@@H](O)C2(F)F)c(=O)n1 (stereo partly drawn) [PA4010]
Activation Rate (rate of releasing monophosphate product dFdCMP) [2]: 9.56 ± 0.07 pmol/min/mg HLM

Other lines, results leading:

Activation Rate (rate of releasing monophosphate product dFdCMP) [2]: 35.28 ± 0.81 pmol/min/mg HLM | Conversion rate to dFdCMP relative to that of PA4004 [2]: ~3.2 times
Structure (SMILES): Nc1ccn([C@@H]2O[C@H](COP3(=O)OCC[C@H](c4cc(F)ccc4Cl)O3)[C@@H](O)C2(F)F)c(=O)n1 (stereo partly drawn) [PA4011]

Activation Rate (rate of releasing monophosphate product dFdCMP) [2]: 38.95 ± 1.17 pmol/min/mg HLM | Conversion rate to dFdCMP relative to that of PA4004 [2]: about 3.5 times
Structure (SMILES): Nc1ccn([C@@H]2O[C@H](COP3(=O)OCC[C@H](c4cc(Cl)ccc4Cl)O3)[C@@H](O)C2(F)F)c(=O)n1 (stereo partly drawn) [PA4012]

Activation Rate (rate of releasing monophosphate product dFdCMP) [2]: 7.23 ± 0.53 pmol/min/mg HLM
Structure (SMILES): Nc1ccn([C@@H]2O[C@H](COP3(=O)OCC[C@H](c4cc(F)ccc4F)O3)[C@@H](O)C2(F)F)c(=O)n1 (stereo partly drawn) [PA4013]

Activation Rate (rate of releasing monophosphate product dFdCMP) [2]: 6.49 ± 0.19 pmol/min/mg HLM
Structure (SMILES): Nc1ccn([C@@H]2O[C@H](COP3(=O)OCC[C@H](c4cccc(F)c4F)O3)[C@@H](O)C2(F)F)c(=O)n1 (stereo partly drawn) [PA4014]

Activation Rate (rate of releasing monophosphate product dFdCMP) [2]: 4.32 ± 0.76 pmol/min/mg HLM
Structure (SMILES): Nc1ccn([C@@H]2O[C@H](COP3(=O)OCC[C@H](c4ccc(F)c(F)c4)O3)[C@@H](O)C2(F)F)c(=O)n1 (stereo partly drawn) [PA4017]

Activation Rate (rate of releasing monophosphate product dFdCMP) [2]: 7.62 ± 0.48 pmol/min/mg HLM
Structure (SMILES): Nc1ccn([C@@H]2O[C@H](COP3(=O)OCC[C@H](c4cccc(Cl)c4Cl)O3)[C@@H](O)C2(F)F)c(=O)n1 (stereo partly drawn) [PA4018]

Activation Rate (rate of releasing monophosphate product dFdCMP) [2]: 5.25 ± 0.13 pmol/min/mg HLM
Structure (SMILES): Nc1ccn([C@@H]2O[C@H](COP3(=O)OCC[C@H](c4ccc(Cl)c(Cl)c4)O3)[C@@H](O)C2(F)F)c(=O)n1 (stereo partly drawn) [PA4021]
